Data: publication PMC10403513, “Tasmanian devil cathelicidins exhibit anticancer activity against Devil Facial Tumour Disease (DFTD) cells” (Scientific Reports, 2023)
No end group written: not given here.

What was measured:
[1] = test system: DFT1 1426 cells; format: cell-based, Tasmanian devil (Sarcophilus harrisii)
Procedure: The DFT1 cell line 1426, derived from a primary DFT1 tumour, was obtained from Menzies Institute for Medical Research, University of Tasmania. The cell line was maintained in RPMI 1640 media with 2 mM L-glutamine (Gibco) supplemented with 10% AmnioMax II (Gibco), 10% heat-inactivated foetal bovine serum (FBS) and 1% penicillin/streptomycin (Sigma-Aldrich), in T75 flasks (Nunc) at 35 °C 5% CO2. Cells were passaged using trypsin–EDTA (Sigma-Aldrich) when 90% confluent.
Toxicity of seven Tasmanian devil cathelicidins against DFT1 1426 cells was determined for twofold dilutions from 500 to 15.62 µg/mL, and four different timepoints (12, 18, 24 and 36 h). Confluent DFT1 1426 cells (passage 22) were re-suspended in RPMI 1640 with 10% FBS and 10% AmnioMax II at a concentration of 5 × 10^5 cells/mL, and 100μL seeded into each well of a sterile flat-bottom 96 well plate (Corning), with individual plates for each timepoint (12, 18, 24 and 36 h). All plates were incubated for 24 h at 35 °C 5% CO2 prior to the cytotoxicity test.
At 0 h, 100 μL of each peptide dilution was then added to each plate in quadruplicate for all timepoints (12, 18, 24 and 36 h), resulting in a final peptide concentrations of 500 μg/mL, 250 μg/mL, 125 μg/mL, 62.50 μg/mL, 31.25 μg/mL and 15.62 μg/mL. […] An untreated growth control of RPMI 1640, a positive control of dimethylsulfoxide (DMSO) (15%) and sterility control of RPMI 1640 only (no cells) were also included for each time point.
For the 12 h timepoint, 10% alamarBlue was immediately added to each well of the plate after addition of the peptide. For the remaining timepoints, plates were incubated for an additional 6, 12 or 24 h after addition of the peptides, then 10% alamarBlue added to each well. For all timepoints, after the addition of alamarBlue cells were incubated for a further 12 h, resulting in a total peptide incubation period of 12, 18, 24 and 36 h. Absorbance of alamarBlue for all timepoints was determined at 570 nm and 630 nm on a Biotek 800 TS microplate reader. Cell viability was calculated according to manufacturer’s instructions and expressed as a percentage of cell survival compared to the untreated growth control.
A one-sample, one-tailed t-test was used to test for significant difference in viability between treated cells and the negative growth control. A one sample, two-tailed t-test was also conducted to ensure there was no significant difference in viability between the negative growth control and the cells treated with the solvent only. Statistical analysis was conducted in R (R Development Core Team 2021).

[2] = test system: DFT1 1426 cells; assay: RNAseq differential gene expression in peptide-treated DFT1 1426 cells; format: cell-based, Tasmanian devil (Sarcophilus harrisii); conditions: 500 μg/mL, 10 h, n = 3, vs vehicle control
Procedure: RNAseq was used to characterize the mechanisms underlying the anticancer activity of the peptides. Confluent DFT1 1426 cells (passage number 25) were re-suspended at a concentration of 5 × 10^5 cells/ml and 1 mL seeded into each well of a sterile flat-bottom polystyrene 12-well plate (Corning). Following incubation for 24 h at 35 °C 5% CO2, media was aspirated from the cells and replaced with 500 μL of RPMI 1640 with 2 mM L-glutamine, 10% FBS and 10% AmnioMax II. 500 μL of each 1 mg/mL peptide solution (Saha-CATH1 to 7) was then added to the plate in triplicate, to give a final peptide concentration of 500 μg/mL. […] A vehicle control was also added to the plate in triplicate.
The plate was then incubated for a further 10 h at 35 °C in 5% CO2. This incubation period was selected as the cytotoxicity assay indicated it was sublethal for most of the peptides and would maintain sufficient cell viability to extract intact RNA. Media was then aspirated from the cells, which were washed twice with Dulbecco’s phosphate buffered saline (DPBS) (Sigma-Aldrich).
Total RNA was extracted from each replicate of the peptide-treated and vehicle control cells (n = 3) using the RNeasy mini kit (Qiagen) with cell lysis directly in each well of the 12 well plate. Total RNA was quality assessed using the RNA nano 6000 kit on the Agilent Bioanalyzer with all samples displaying a RIN score between 5 and 9. In total, 24 RNA samples corresponding to three treatments per peptide (Saha-CATH1 to 7) and a vehicle control were submitted to Ramaciotti Centre for Genomics (The University of New South Wales) for sequencing. Illumina TruSeq mRNA libraries were prepared for all samples, which were sequenced as 2 × 150 bp paired-end reads across an SP flowcell on the NovaSeq6000.
Raw reads were quality assessed using FastQC v0.11.8[47], then quality and length trimmed using Trimmomatic v0.39[48] using default parameters. Trimmed reads for each treatment (n = 3) and the control (n = 3) were aligned to the Tasmanian devil reference genome v7.0 (NCBI: GCA_000189315.1[49] using STAR v2.7.8a[50]. Alignments for each treatment were summarized into gene counts using featureCounts in the subread package v1.5.1[51].
Gene counts were used as input for differential expression analysis in R[52]. Genes with less than 50 counts across all samples were removed from the analysis, as these were unlikely to be biologically relevant and lacked sufficient statistical power. Firstly, the data was normalized by trimmed mean of M values (TMM) using edgeR v3.32.1[53] to account for any composition bias between libraries and to give an effective library size for downstream analysis. Multidimensional scaling (MDS) was used to check for variation between treatments using limma v3.36.0[54]. Expression levels were then normalized using upper-quartile normalization in EDAseq v2.24.0[55] to account for differences in distribution between lanes, such as sequencing depth. Differential expression analysis was performed using voom in the limma v3.36.0 package.
(§1) Over-representation analysis of Biological Processes was conducted in clusterProfiler v3.18.1[57]. Statistical significance was adjusted for multiple comparisons using the Benjamini–Hochberg method, and terms were considered significant when p-adj < 0.05. To remove general terms, gene sets larger than 200 were removed, and the simplify function was used to remove redundant GO terms. Further pathway analysis was conducted in IPA (Qiagen)[58], using mammal as the species type and nervous system for the tissue/cell type.

[3] = test system: DFT1 1426 cells; assay: Ingenuity Pathway Analysis (canonical pathways) of DE genes in treated DFT1 1426 cells; format: cell-based, Tasmanian devil (Sarcophilus harrisii); conditions: DE genes of cells treated with 500 μg/mL for 10 h
Procedure: as §1

[4] = test system: human cell line A549; conditions: 500 µg/mL; cited from earlier work
Procedure: Here we aimed to identify cathelicidin candidates for future development as anti-DFTD therapeutics. Four Tasmanian devil cathelicidins (Saha-CATH3, 4, 5 and 6) were toxic to DFT1 1426 cells at high concentrations: Saha-CATH3 at concentrations ≥ 62.5 µg/mL; Saha-CATH4 at 500 µg/mL; Saha-CATH5 at concentrations ≥ 125 µg/mL and Saha-CATH6 at concentrations ≥ 250 µg/mL. Previous studies have shown that two of these peptides (Saha-CATH3 and 4) are non-toxic to human cell line A549[44]. The other two (Saha-CATH5 and 6) reduced cell viability at high concentrations (500 µg/mL), resulting in 42% and 5 ...

[5] = test system: human red blood cells; conditions: human red blood cells; cited from earlier work
From the text: Cathelicidins have been isolated from many vertebrate taxa[34]–[37]. However, they have undergone gene expansion in marsupials due to the need for additional protection of immunologically naïve young during development in the pouch. […] During development within the pouch, young are exposed to diverse microbial flora, some of which are pathogenic. This has likely encouraged the lineage-specific expansion of cathelicidins in marsupials, resulting in mult ...

**Q.** With “KRIRFFERIRDRLRDLGNRIKNRIRDFFS [Saha-CATH6]” as the sequence, how does the “decrease in cell viability compared to the growth control” value ([1]; 500 μg/mL, 36 h, DFT1 1426 cells, alamarBlue, quadruplicate) read?
**A.** Its value is “more than 50%”.

**Q.** What about the “incubation period required before exhibiting a similar level of toxicity to Saha-CATH5” value ([1]; 500 μg/mL, DFT1 1426 cells) of the same sequence?
**A.** The value was 18 h.

**Q.** And the “cell viability (% of untreated growth control)” value ([1]; 500 µg/mL, after 18 h, mean of quadruplicate)?
**A.** Its value is 0%.

**Q.** And the “cytotoxic concentration (cell viability reduced by more than 50%)” value ([1]; 18 h)?
**A.** Its value is ≥ 250 µg/mL.

**Q.** And the “concentration toxic to DFT1 1426 cells” value ([1]; summary in the discussion)?
**A.** Its value is ≥ 250 µg/mL.

**Q.** What about the “Fold change (FC), ATF3” value ([2]; RNAseq) of the same sequence?
**A.** Its value is 5.02.

**Q.** And the “Fold change (FC), CHOP (DDIT3)” value ([2]; RNAseq)?
**A.** The value was 1.91.

**Q.** And the “Fold change (FC), GADD34 (PPP1R15A)” value ([2]; RNAseq)?
**A.** The value was 2.14.

**Q.** What about the “Fold change, gene IL1R1” value ([2]; cytokine receptor, RNAseq) of the same sequence?
**A.** The value was 2.29.

**Q.** What about the “Fold change, gene IL6R” value ([2]; cytokine receptor, RNAseq) of the same sequence?
**A.** Its value is 1.70.

**Q.** And the “Fold change, gene IL21R” value ([2]; cytokine receptor, RNAseq)?
**A.** Its value is 1.58.

**Q.** And the “Fold change, gene IL6” value ([2]; cytokine, RNAseq)?
**A.** The value was 11.14.

**Q.** What about the “Fold change, gene MYD88” value ([2]; immune signaling, RNAseq) of the same sequence?
**A.** The value was 1.78.

**Q.** What about the “percentage of DE genes” value ([2]; of 15,548 genes) of the same sequence?
**A.** Its value is 15.56%.

**Q.** And the “Fold change, gene RUNX1” value ([2]; transcription factor, RNAseq)?
**A.** The value was 1.61.

**Q.** What about the “IPA z-score, EIF2 signaling” value [3] of the same sequence?
**A.** The value was 4.352.

**Q.** And the “IPA z-score, Th17 activation pathway” value [3]?
**A.** Its value is 2.53.

**Q.** What about the “cell survival of human cell line A549” value [4] of the same sequence?
**A.** Its value is 59%.

**Q.** And the “concentration at which moderately haemolytic” value [5]?
**A.** Its value is “above 250 μg/mL”.
